Assay results published in patent publication US20170121344A1 (Siga Technologies, Inc., priority 2009, published 2017).
Where two headings read alike, the source gives them in different places.

Tested on: Dengue-2 (Strain New Guinea C)
Assay: Viral yield assay against Dengue-2 in Vero cells
Type: cell-based, Dengue virus
Details: Dengue virus
How it was run: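 Infect Vero cells with virus (MOI 0.1), add compound or DMSO, incubate at 37° C, collect progeny at 48 hours post infection, then titrate on Vero cells to obtain EC50.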

[1] = Vero cells, MOI 0.1, harvested 48 hours post infection, read-out: Activity (EC50 class) against Dengue-2 Virus in Vero cells
[2] = DENV2, viral yield assay, Vero cells, MOI 0.1, 48 hours post infection, read-out: Activity (EC50 in μM) DENV-2
[3] = Vero, 48 h, read-out: Activity (EC50 class) against Dengue-2 Virus in Vero cells
[4] = DENV2, Vero, 48 h, read-out: Activity (EC50 in μM) DENV-2

| Structure (SMILES) | EC50 [1] [µM] | EC50 [2] [µM] | further results |
| --- | --- | --- | --- |
| CN1CCc2nc3sc(C(=O)Nc4ccc(N(C)C)cc4)c(N)c3cc2C1 [Compound 20, 3-Amino-6-methyl-5,6,7,8-tetrahydro-thieno[2,3-b][1,6]naphthyridine-2-carboxylic acid (4-dimethylamino-phenyl)-amide] | < 5 |  |  |
| O=C(Nc1ccc(OC(F)(F)F)cc1)c1sc2ncccc2c1OCc1ccc(Cl)c(Cl)c1 [Compound 378, 3-[(3,4-dichlorophenyl)methoxy]-N-[4-(trifluoromethoxy)phenyl]thieno[2,3-b] pyridine-2-carboxamide] |  | < 5 |  |
| CCOC(=O)c1cc(NC(=O)c2sc3nc(C)cc(COC)c3c2N)ccc1Cl [Compound 240, 5-[(3-Amino-4-methoxymethyl-6-methyl-thieno[2,3-b]pyridine-2-carbonyl)-amino]-2-chloro-benzoic acid ethyl ester] | > 25 |  |  |
| N#Cc1cc2c(N)c(C(=O)Nc3ccc(Cl)c(Cl)c3)sc2nc1N [Compound 129, 3,6-Diamino-5-cyano-thieno[2,3-b]pyridine-2-carboxylic acid (3,4-dichloro-phenyl)-amide] | > 25 |  |  |
| Cc1cc(NC(=O)c2sc3nc(-c4ccc5c(c4)OCO5)ccc3c2N)ccc1Br [Compound 590, 3-amino-6-(1,3-benzodioxol-5-yl)-N-(4-bromo-3-methyl-phenyl)thieno[2,3-b] pyridine-2-carboxamide] |  | < 5 |  |
| Cc1cc(C(F)(F)F)c2c(N)c(C(=O)Nc3cccc(C(F)(F)F)c3)sc2n1 [Compound 149, 3-Amino-6-methyl-4-trifluoromethyl-thieno[2,3-b]pyridine-2-carboxylic acid (3-trifluoromethyl-phenyl)-amide] |  |  | EC50 [3]: > 25 µM |
| Cc1cc(C)c2c(N)c(C(=O)Nc3cc(C(F)(F)F)ccc3Cl)sc2n1 [Compound 186, 3-Amino-4,6-dimethyl-thieno[2,3-b]pyridine-2-carboxylic acid (2-chloro-5-trifluoromethyl-phenyl)-amide] | > 25 |  |  |
| CN1CCc2nc3sc(C(=O)Nc4cccnc4Cl)c(N)c3cc2C1 [Compound 46, 3-Amino-6-methyl-5,6,7,8-tetrahydro-thieno[2,3-b][1,6]naphthyridine-2-carboxylic acid (2-chloro-pyridin-3-yl)-amide] | < 5 |  |  |
| N#Cc1cc2c(N)c(C(=O)Nc3ccccc3Br)sc2nc1N [Compound 134, 3,6-Diamino-5-cyano-thieno[2,3-b]pyridine-2-carboxylic acid (2-bromo-phenyl)-amide] |  |  | EC50 [3]: > 25 µM |
| Nc1c(C(=O)Nc2ccc3c(c2)OCO3)sc2nc(-c3ccc(F)cc3F)ccc12 [Compound 655, 3-amino-N-(1,3-benzodioxol-5-yl)-6-(2,4-difluorophenyl)thieno[2,3-b]pyridine-2-carboxamide] |  | < 5 |  |
| Nc1c(C(=O)Nc2nccs2)sc2nc3c(c(-c4cccs4)c12)CCCCC3 [Compound 223, 3-Amino-4-thiophen-2-yl-6,7,8,9-tetrahydro-5H-1-thia-10-aza-cyclohepta[f]indene-2-carboxylic acid thiazol-2-ylamide] |  |  | EC50 [3]: > 25 µM |
| CC(C)Cc1ccc2c(N)c(C(=O)Nc3ccccc3)sc2n1 [Compound 206, 3-Amino-6-isobutyl-thieno[2,3-b]pyridine-2-carboxylic acid phenylamide] |  |  | EC50 [3]: > 25 µM |
| CCOC(=O)c1cc2c(N)c(C(=O)Nc3cccc(C(F)(F)F)c3)sc2nc1N [Compound 75, 3,6-Diamino-2-(3-trifluoromethyl-phenylcarbamoyl)-thieno[2,3-b]pyridine-5-carboxylic acid ethyl ester] | 5 to 25 |  |  |
| CC(=O)c1cnc2sc(C(=O)NCc3ccc(CN(C)C)cc3)c(C)c2c1 [Compound 400] |  | < 5 |  |
| Nc1c(C(=O)Nc2ccc([N+](=O)[O-])cc2)sc2nc3c(cc12)CCCC3 [Compound 228, 3-Amino-5,6,7,8-tetrahydro-thieno[2,3-b]quinoline-2-carboxylic acid (4-nitro-phenyl)-amide] | > 25 |  |  |
| Nc1c(C(=O)Nc2ccccc2C(F)(F)F)sc2nc3c(cc12)CCCCC3 [Compound 372, 3-amino-N-(2-(trifluoromethyl)phenyl)-6,7,8,9-tetrahydro-5H-cyclohepta[b]thieno [3,2-e]pyridine-2-carboxamide] |  | < 5 |  |
| Nc1c(C(=O)Nc2ccccc2F)sc2nc3c(cc12)CCCCC3 [Compound 79, 3-Amino-6,7,8,9-tetrahydro-5H-1-thia-10-aza-cyclohepta[f]indene-2-carboxylic acid (2-fluoro-phenyl)-amide] |  |  | EC50 [3]: 5 to 25 µM |
| CN1CCc2nc3sc(C(=O)NCCc4c[nH]c5ccccc45)c(N)c3cc2C1 [Compound 32, 3-Amino-6-methyl-5,6,7,8-tetrahydro-thieno[2,3-b][1,6]naphthyridine-2-carboxylic acid [2-(1H-indol-3-yl)-ethyl]-amide] | < 5 |  |  |
| Nc1c(C(=O)Nc2ccc(Br)cc2)sc2nc(-c3ccc4c(c3)OCO4)ccc12 [Compound 474, 3-amino-6-(1,3-benzodioxol-5-yl)-N-(4-bromophenyl)thieno[2,3-b]pyridine-2-carboxamide] |  | < 5 |  |

| Structure (SMILES) | EC50 [1] [µM] | EC50 [2] [µM] | further results |
| --- | --- | --- | --- |
| Cc1ccc(NC(=O)c2sc3nc(-c4ccc5c(c4)OCO5)ccc3c2N)cc1C [Compound 528, 3-amino-6-(1,3-benzodioxol-5-yl)-N-(3,4-dimethylphenyl)thieno[2,3-b]pyridine-2-carboxamide] |  | < 5 |  |
| Cc1nc(C)c(-c2ccc3c(N)c(C(=O)Nc4cccc(C(F)(F)F)c4)sc3n2)s1 [Compound 318, 3-amino-6-(2,4-dimethylthiazol-5-yl)-N-[3-(trifluoromethyl)phenyl]thieno[2,3-b]pyridine-2-carboxamide] |  | < 5 |  |
| O=c1[nH]cnc2c1sc1nc(N3CCOCC3)c3c(c12)CCCC3 [Compound 182, 5-Morpholin-4-yl-1,2,3,4-tetrahydro-9H-7-thia-6,9,11-triaza-benzo[c]fluoren-8-one] |  |  | EC50 [3]: > 25 µM |
| COc1cccc(-c2ccc3c(N)c(C(=O)Nc4ccc(OC)c(OC)c4)sc3n2)c1 [Compound 508, 3-amino-N-(3,4-dimethoxyphenyl)-6-(3-methoxyphenyl)thieno[2,3-b]pyridine-2-carboxamide] |  |  | EC50 [4]: < 5 µM |
| Nc1c(C(=O)Nc2ccncc2)sc2nc(-c3cccc(C(F)(F)F)c3)ccc12 [Compound 653, 3-amino-N-(4-pyridyl)-6-[3-(trifluoromethyl)phenyl]thieno[2,3-b] pyridine-2-carboxamide] |  | < 5 |  |
| COc1ccc(-c2cc(-c3cccs3)nc3sc(C(N)=O)c(N)c23)cc1 [Compound 238, 3-Amino-4-(4-methoxy-phenyl)-6-thiophen-2-yl-thieno[2,3-b]pyridine-2-carboxylic acid amide] | > 25 |  |  |
| COc1ccc(Cl)cc1NC(=O)c1sc2nc3c(cc2c1N)CN(C)CC3 [Compound 37, 3-Amino-6-methyl-5,6,7,8-tetrahydro-thieno[2,3-b][1,6]naphthyridine-2-carboxylic acid (5-chloro-2-methoxy-phenyl)-amide] | < 5 |  |  |
| Nc1c(C(=O)Nc2ccccc2Br)sc2ncccc12 [Compound 422, 3-amino-N-(2-bromophenyl)thieno[2,3-b] pyridine-2-carboxamide] |  | < 5 |  |
| COc1ccc(-c2ccc3c(N)c(C(=O)Nc4ccc(Br)cc4)sc3n2)cc1OC [Compound 451, 3-amino-N-(4-bromophenyl)-6-(3,4-dimethoxyphenyl)thieno[2,3-b]pyridine-2-carboxamide] |  | < 5 |  |
| COc1cccc(-c2ccc3c(N)c(C(=O)Nc4ccc(C)cc4Br)sc3n2)c1 [Compound 627, 3-amino-N-(2-bromo-4-methyl-phenyl)-6-(3-methoxyphenyl)thieno[2,3-b] pyridine-2-carboxamide] |  | < 5 |  |
| COc1ccc(NC(=O)c2sc3nc(-c4ccc(F)cc4)ccc3c2N)cc1OC [Compound 619, 3-amino-N-(3,4-dimethoxyphenyl)-6-(4-fluorophenyl)thieno[2,3-b]pyridine-2-carboxamide] |  |  | EC50 [4]: < 5 µM |
| Cc1ccc(F)cc1NC(=O)c1sc2nc(-c3ccc(F)cc3)ccc2c1N [Compound 623, 3-amino-N-(5-fluoro-2-methyl-phenyl)-6-(4-fluorophneyl)thieno[2,3-b]pyridine-2-carboxamide] |  | < 5 |  |
| Cc1ccc(NC(=S)NNC(=O)c2sc3nc(-c4cccs4)cc(C(F)(F)F)c3c2C)cc1 [Compound 410, 1-[[3-methyl-6-(2-thienyl)-4-(trifluoromethyl)thieno[2,3-b]pyridine-2-carbonyl]amino]-3-(p-tolyl)thiourea] |  | < 5 |  |
| CCOc1cccc(NC(=O)c2sc3nc(-c4cccc(OC)c4)ccc3c2N)c1 [Compound 552, 3-amino-N-(3-ethoxyphenyl)-6-(3-methoxyphenyl)thieno[2,3-b]pyridine-2-carboxamide] |  | < 5 |  |
| COCc1cc(C)nc2sc(C(=O)Nc3ccccc3)c(N)c12 [Compound 124, 3-Amino-4-methoxymethyl-6-methyl-thieno[2,3-b]pyridine-2-carboxylic acid phenylamide] | > 25 |  |  |
| Cc1cc(NC(=O)c2sc3nc4c(c(-c5cccs5)c3c2N)CN(C)CC4)no1 [Compound 103, 3-Amino-6-methyl-4-thiophen-2-yl-5,6,7,8-tetrahydro-thieno[2,3-b][1,6]naphthyridine-2-carboxylic acid (5-methyl-isoxazol-3-yl)amide] | 5 to 25 |  |  |
| CCc1nnc(NC(=O)c2sc3nc(C)cc(C(F)(F)F)c3c2N)s1 [Compound 65, 3-Amino-6-methyl-4-trifluoromethyl-thieno[2,3-b]pyridine-2-carboxylic acid (5-ethyl-[1,3,4]thiadiazol-2-yl)-amide] | 5 to 25 |  |  |
| CCN1CCc2nc3sc(C(=O)Nc4cccnc4Cl)c(N)c3cc2C1 [Compound 41, 3-Amino-6-ethyl-5,6,7,8-tetrahydro-thieno[2,3-b][1,6]naphthyridine-2-carboxylic acid (2-chloro-pyridin-3-yl)-amide] |  |  | EC50 [3]: < 5 µM |
